Measurements taken from patent US10793547B2, “Modulator of the cystic fibrosis transmembrane conductance regulator, pharmaceutical compositions, methods of treatment, and process for making the modulator” (Vertex Pharmaceuticals Incorporated, priority 2016, dated 2020).
Read-outs that look alike come from different tables or passages of the source.

How the values were obtained:
Rat hepatocytes = experiment: Hepatocyte clearance, rat hepatocytes; type: in vitro ADME; conditions: percent unchanged
F508del-CFTR = target: T1, F508del-CFTR (Homo sapiens, UniProt P13569, DEL508-508); experiment: Membrane potential optical (FLIPR) assay for F508del-CFTR modulators in NIH 3T3 cells; type: cell-based; conditions: for EC50: assay A1
T1 construct: expressed in transfected cells
T1 sequence (P13569 with tags, fused parts or gaps DEL508-508): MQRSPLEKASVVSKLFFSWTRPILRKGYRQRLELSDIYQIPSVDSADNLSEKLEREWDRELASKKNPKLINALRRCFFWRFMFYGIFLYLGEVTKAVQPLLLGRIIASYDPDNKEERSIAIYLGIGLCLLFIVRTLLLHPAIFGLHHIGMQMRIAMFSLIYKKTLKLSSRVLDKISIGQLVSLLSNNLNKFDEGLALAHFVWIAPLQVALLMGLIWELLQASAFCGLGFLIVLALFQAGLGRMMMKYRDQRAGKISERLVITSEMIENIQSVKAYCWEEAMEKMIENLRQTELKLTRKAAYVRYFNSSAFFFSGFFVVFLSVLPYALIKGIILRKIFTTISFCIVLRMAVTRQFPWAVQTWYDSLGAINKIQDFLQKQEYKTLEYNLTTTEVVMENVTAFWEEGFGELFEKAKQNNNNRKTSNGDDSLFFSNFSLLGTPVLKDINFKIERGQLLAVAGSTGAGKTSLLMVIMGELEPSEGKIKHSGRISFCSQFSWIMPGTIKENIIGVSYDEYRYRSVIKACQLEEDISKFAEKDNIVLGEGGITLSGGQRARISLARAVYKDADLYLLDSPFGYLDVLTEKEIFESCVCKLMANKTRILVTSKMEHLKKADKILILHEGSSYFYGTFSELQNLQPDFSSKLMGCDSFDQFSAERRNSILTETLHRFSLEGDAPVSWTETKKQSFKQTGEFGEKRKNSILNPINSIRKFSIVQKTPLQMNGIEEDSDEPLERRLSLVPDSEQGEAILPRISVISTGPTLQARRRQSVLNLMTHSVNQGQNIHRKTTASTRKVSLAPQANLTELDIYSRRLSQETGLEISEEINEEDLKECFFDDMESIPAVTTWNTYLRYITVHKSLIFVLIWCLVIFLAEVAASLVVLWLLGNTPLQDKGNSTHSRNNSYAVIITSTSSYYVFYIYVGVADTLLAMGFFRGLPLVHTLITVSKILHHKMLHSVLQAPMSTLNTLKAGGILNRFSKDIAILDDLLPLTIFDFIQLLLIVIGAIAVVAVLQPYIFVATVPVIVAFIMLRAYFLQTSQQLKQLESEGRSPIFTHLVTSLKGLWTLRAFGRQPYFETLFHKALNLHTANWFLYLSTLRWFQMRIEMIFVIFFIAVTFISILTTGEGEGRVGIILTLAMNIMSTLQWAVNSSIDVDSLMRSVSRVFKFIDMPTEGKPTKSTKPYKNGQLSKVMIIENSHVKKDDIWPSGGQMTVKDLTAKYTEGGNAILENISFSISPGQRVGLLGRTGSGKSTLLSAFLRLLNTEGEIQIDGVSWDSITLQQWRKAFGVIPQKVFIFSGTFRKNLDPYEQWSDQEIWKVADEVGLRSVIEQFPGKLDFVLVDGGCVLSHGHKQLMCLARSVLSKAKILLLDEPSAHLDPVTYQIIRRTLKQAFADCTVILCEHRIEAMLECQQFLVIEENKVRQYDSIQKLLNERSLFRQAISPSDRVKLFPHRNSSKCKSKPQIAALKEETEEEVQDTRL
How it was run: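 NIH3T3 mouse fibroblasts stably expressing F508del, seeded on matrigel and cultured 18-24 h at 37 °C; for correction, cells were cultured with or without compound for 18-24 h. Cells were loaded with voltage-sensing dye, then compound was added in one step with a chloride gradient (chloride replaced by gluconate). Membrane potential was read by fluorescence.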

human PXR = target: T2, human PXR (Homo sapiens, UniProt O75469); experiment: PXR assay: PXR mediated CYP3A4 induction in DPX-2 cell line; type: cell-based; conditions: DPX-2 cells
T2 construct: host or cells: DPX-2 cell line (derived from HepG2)
T2 sequence (O75469 1-434): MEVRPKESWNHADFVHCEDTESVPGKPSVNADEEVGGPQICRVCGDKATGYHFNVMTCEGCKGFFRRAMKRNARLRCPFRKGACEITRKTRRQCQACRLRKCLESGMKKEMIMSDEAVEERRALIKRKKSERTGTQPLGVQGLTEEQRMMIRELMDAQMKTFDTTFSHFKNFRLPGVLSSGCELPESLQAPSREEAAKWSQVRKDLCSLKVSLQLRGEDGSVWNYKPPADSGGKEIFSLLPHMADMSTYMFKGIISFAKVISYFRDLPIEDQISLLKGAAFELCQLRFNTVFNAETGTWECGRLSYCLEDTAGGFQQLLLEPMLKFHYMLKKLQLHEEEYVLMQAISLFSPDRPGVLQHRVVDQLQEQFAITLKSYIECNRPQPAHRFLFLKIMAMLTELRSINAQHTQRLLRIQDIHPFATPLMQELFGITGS
How it was run: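 HepG2-derived DPX-2 cells stably carrying human PXR and a CYP3A4 promoter/enhancer–luciferase reporter; 11 doses from 0.1 to 60 μM for 48 h, rifampicin as positive control. Viability read by fluorescence, then luciferase luminescence; max fold induction over vehicle and EC50 reported.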

[1] = MDCK-Wild Type permeability, 96 well + 0.1% BSA; type: in vitro ADME; conditions: dog, MDCK, A-B direction, read-out: MDCK-Wild Type-Permeability 96 well + 0.1% BSA Papp compound (A-B)
[2] = test system: F508del/F508del-HBE cells; experiment: Ussing chamber chloride transport experiment; type: cell-based
Experimental: Ussing chamber experiments were performed on polarized airway epithelial cells expressing F508del to further characterize the F508del modulators identified in the optical assays. Non-CF and CF airway epithelia were isolated from bronchial tissue, cultured as previously described (Galietta, L. J. V., Lantero, S., Gazzolo, A., Sacco, O., Romano, L., Rossi, G. A., & Zegarra-Moran, O. (1998) In Vitro Cell. Dev. Biol. 34, 478-481), and plated onto Costar® Snapwell™ filters that were precoated with NIH3T3-conditioned media. After four days the apical media was removed and the cells were grown at an air liquid interface for >14 days prior to use. […] CF-HBE were isolated from patients homozygous for F508del or compound heterozygous for F508del with an different disease causing mutation on the other allele.
HBE grown on Costar® Snapwell™ cell culture inserts were mounted in an Ussing chamber (Physiologic Instruments, Inc., San Diego, Calif.), and the transepithelial resistance and short-circuit current in the presence of a basolateral to apical Cl^− gradient (ISC) were measured using a voltage-clamp system (Department of Bioengineering, University of Iowa, Iowa). Briefly, HBE were examined under voltage-clamp recording conditions (Vhold=0 mV) at 37° C. […]

[3] = Metabolism of Compound 1 in vitro and in vivo
Rat IV and PO PK studies = type: in vivo, male Sprague-Dawley rats
Experimental: C. Experimental Protocol for Rat IV and PO PK Studies
The tested compound was administered to male Sprague-Dawley rats as a single nominal intravenous dose of 3.0 mg/kg as a solution in 10% NMP, 10% solution, 15% EtOH, 35% PEG400 and 30% D5W. The tested compound was also administered to male Sprague-Dawley rats at single nominal oral dose of 3 mg/kg as a solution in 5% NMP, 30% PEG400, 10% TPGS, 5% PVP-K30 at 5 mL/kg dose volume. Analyses of plasma and dose preparations were performed using LC/MS/MS.
Plasma concentration-time profiles of the tested compound in Sprague-Dawley rats at scheduled (nominal) sampling times were analyzed by noncompartmental pharmacokinetic methods using PK function within Watson LIMS software, Version 7.4.2 (Thermo Scientific Inc, Waltham, Mass.). AUC values were calculated using the linear trapezoidal rule.

MDCK-Wild Type = MDCK-Wild Type permeability, 96 well + 0.1% BSA; type: in vitro ADME; conditions: A-B direction
[4] = NIH 3T3 cells expressing F508del, read-out: CFTRdF508 Cor 3T3 FLIPR 384 CFTRdF508 MP 3T3 770 EC50

SMILES	Hepatocyte clearance-Rat Rat hepatocytes CL pct_unchanged (Rat hepatocytes) [%]	Emax (F508del-CFTR; NIH3T3, assay A1, read-out: % Efficacy relative to Compound II) [%]	EC50 (F508del-CFTR; [4]) [nM]	EC50 (F508del-CFTR; read-out: EC50) [nM]	CYP3A4 Induction-PXR human PXR internal Max % Activity (human PXR) [%]	Papp A→B [1] [×10⁻⁶ cm/s]	effect on chloride transport in combination with Compound II [2]	chloride transport ([2]; Compound 1 alone)	metabolism ([3]; in vitro and in vivo)	RAT PLASMA-RAW IV-bolus CL_drg (Rat IV and PO PK studies; IV bolus, nominal 3.0 mg/kg) [mL/min/kg]	RAT PLASMA-RAW PO % F_drg (Rat IV and PO PK studies; PO, nominal 3 mg/kg) [%]	AUC(0-inf) (Rat IV and PO PK studies; male, Sprague-Dawley, plasma, PO, nominal 3 mg/kg, read-out: RAT PLASMA-RAW PO AUC (0-inf)_drg) [ng·h/mL]	metabolite identity [3]	MDCK-Wild Type-Permeability 96 well + 0.1% BSA Papp compound (A-B) (MDCK-Wild Type)
Cc1nn(C)cc1S(=O)(=O)NC(=O)c1ccc(-n2ccc(OCC(C)(C)C(F)(F)F)n2)nc1N1C[C@@H](C)CC1(C)C [Compound 1, N-(1,3-dimethylpyrazol-4-yl)sulfonyl-6-[3-(3,3,3-trifluoro-2,2-dimethyl-propoxy)pyrazol-1-yl]-2-[(4S)-2,2,4-trimethylpyrrolidin-1-yl]pyridine-3-carboxamide]	66	≥ 100	70	< 3000	2	4.5	additive to the effect of Compound II	enhanced chloride transport	metabolized both in vitro and in vivo, mostly by oxidative metabolism	1.6	83	23500		
Cc1n[nH]cc1S(=O)(=O)NC(=O)c1ccc(-n2ccc(OCC(C)(C)C(F)(F)F)n2)nc1N1C[C@@H](C)CC1(C)C [Compound 31, (S)—N-((3-methyl-1H-pyrazol-4-yl)sulfonyl)-6-(3-(3,3,3-trifluoro-2,2-dimethylpropoxy)-1H-pyrazol-1-yl)-2-(2,2,4-trimethylpyrrolidin-1-yl)nicotinamide]	30		410		1	1.1							metabolites of Compound 1	
Cc1nn(C)cc1S(=O)(=O)NC(=O)c1ccc(-n2ccc(OC3CC3C(F)(F)F)n2)nc1N1C[C@@H](C)CC1(C)C (stereo partly drawn) [Compound 35, N-(1,3-dimethylpyrazol-4-yl)sulfonyl-6-[3-[2-(trifluoromethyl)cyclopropoxy]pyrazol-1-yl]-2-[(4S)-2,2,4-trimethylpyrrolidin-1-yl]pyridine-3-carboxamide]	54		1400		21									5.5 10E-6 cm/s
Cc1nn(C)cc1S(=O)(=O)NC(=O)c1ccc(-n2ccc(OCC(C)(CO)C(F)(F)F)n2)nc1N1C[C@@H](C)CC1(C)C (stereo partly drawn) [Compound 45, N-(1,3-dimethylpyrazol-4-yl)sulfonyl-6-[3-[3,3,3-trifluoro-2-(hydroxymethyl)-2-methyl-propoxy]pyrazol-1-yl]-2-[(4S)-2,2,4-trimethylpyrrolidin-1-yl]pyridine-3-carboxamide]	49		560		9	1.2							metabolites of Compound 1	
